We go through 74 compounds from the OPERA property sets (Mansouri et al. 2018).

The structures appear in SMILES notation.

Conditions in one series: not given
On to `O=[N+]([O-])c1ccc2[nH]ccc2c1`, for which the melting point is 141 °C.

For the compound `N#Cc1ccc(Cl)c([N+](=O)[O-])c1`, the melting point was found to be 99 °C.

Take `CC(C)c1ccc(OP(=O)(Oc2ccc(C(C)C)cc2)Oc2ccc(C(C)C)cc2)cc1`: the ready biodegradability entry was “not readily biodegradable”.

For the compound `O=C(O)C1c2ccccc2-c2ccccc21`, the melting point came to 230 °C.

`CC(=O)O[C@H]1C[C@@]2(C)[C@@H](C[C@@H](O)[C@H]3[C@@]4(C)CC[C@@H](O)[C@@H](C)[C@@H]4CC[C@@]32C)/C1=C(\CCC=C(C)C)C(=O)O` yielded a melting point of 192 °C.

`Nc1ccc2c(S(=O)(=O)O)cccc2c1S(=O)(=O)O`: the ready biodegradability result is “not readily biodegradable”.

Regarding `C[N+]1(C)CCCCC1`, the log10 Koc (L/kg) was 6.

The compound `CC(C)NC(C)(C)C` came in with a boiling point of 98 °C.

With `CC#CC(=O)O`, the boiling point was 203 °C and the melting point was 78 °C.

Consider `CCOC(=O)[C@@H](C)Br`, for which the boiling point turned out to be 160 °C.

Take `C[SiH](O[SiH](C)O[Si](C)(C)C)O[Si](C)(C)C` (stereo unspecified): the boiling point is 170 °C.

For the compound `Clc1ccc2c(Cl)cccc2c1Cl`, the log10 Koa came out at 7.5.

As to `BrCCBr`, the boiling point is 132 °C, the log10 Henry constant (atm·m³/mol) was -3.19, the log10 Koc (L/kg) is 1.71 and the log10 vapour pressure (mmHg) came to 1.05. The melting point turned out to be 9.9 °C and the ready biodegradability result was “not readily biodegradable”.

`O=[N+]([O-])c1cc([N+](=O)[O-])c2ccccc2c1` showed a melting point of 148 °C.

In turn, `CCCCOC(=O)N(C)SN(C)C(=O)Oc1cccc2c1OC(C)(C)C2` had a log10 vapour pressure (mmHg) of -7.53.

In turn, `Nc1nncs1` had a melting point of 191 °C.

In the case of `Cc1ccccc1N`, the boiling point was determined as 200 °C, the log10 Henry constant (atm·m³/mol) is -5.7, the log10 vapour pressure (mmHg) is -0.585 and the melting point is -16.3 °C. In addition, the ready biodegradability entry is given as “readily biodegradable”.

`COc1ccccc1C(=O)c1ccccc1` came in with a melting point of 41 °C.

The compound `c1c2c(cc3c1CCCC3)CCCC2` gave a boiling point of 294 °C and a melting point of 78 °C.

Compound `NC(N)=Nc1nc(CSCCC(N)=NS(N)(=O)=O)cs1` registered a melting point of 164 °C.

As for `CCCCCCCCCCCCCOC(=O)c1ccccc1C(=O)OCCCCCCCCCCCCC`, the ready biodegradability entry was “not readily biodegradable”.

In turn, `Clc1cnccn1` returned a boiling point of 154 °C.

`CC(=O)CC(=O)c1ccccc1`: the boiling point came out at 262 °C, the melting point is 56 °C and the ready biodegradability entry was “readily biodegradable”.

In turn, `CC1CCCC(C)(C)C1` (stereo unspecified) returned a boiling point of 137 °C, a log10 vapour pressure (mmHg) of 1.03 and a melting point of -65.7 °C.

The compound `O=C1Cc2cccc3cccc1c23` had a melting point of 121 °C.

As for `CCNC`, the boiling point turned out to be 36.5 °C.

For the compound `Brc1ccc(Oc2ccc(Br)cc2)cc1`, the boiling point was determined as 339 °C, the log10 Koa is 8.64 and the melting point is 60.5 °C.

The compound `COC(=O)c1ccncc1` yielded a boiling point of 208 °C and a melting point of 16.1 °C.

Compound `c1ccc(C2(c3ccccc3)CC2C2=NCCN2)cc1` (stereo unspecified) showed a melting point of 104 °C.

`CCCC(=O)c1ccc(C)cc1` displayed a boiling point of 252 °C and a melting point of 12 °C.

Regarding `FC(F)(F)C(F)(F)C(F)(F)C(F)(F)C(F)(F)C(F)(F)C(F)(F)C(F)(F)C(F)(F)I`, the boiling point was 181 °C.

`Oc1ccc(C2CCCCC2)cc1` came in with a boiling point of 294 °C and a melting point of 133 °C.

As to `CC(=O)[C@H]1CC[C@H]2[C@@H]3C[C@H](C)C4=CC(=O)CC[C@]4(C)[C@H]3[C@@H](O)C[C@]12C`, the melting point is 156 °C.

For the compound `Nc1c(F)c(F)c(F)c(F)c1F`, the boiling point is 153 °C and the melting point worked out at 35.5 °C.

Regarding `C#C[C@]1(OC(C)=O)CC[C@H]2[C@@H]3CCC4=CC(=O)CC[C@@H]4[C@H]3CC[C@@]21C`, the melting point stood at 162 °C.

`CC[N+](C)(CC)CCOC(=O)C(O)(c1ccccc1)C1CCCCC1.[Br-]` (stereo unspecified) registered a melting point of 192 °C.

`Cc1cccc([N+](=O)[O-])c1C`: the boiling point was 240 °C, the log10 vapour pressure (mmHg) was -0.445, the melting point is 15 °C and the ready biodegradability result is on record as “not readily biodegradable”.

Consider `COc1cc2ccc(=O)oc2c(O)c1O`, for which the melting point came to 231 °C.

In the case of `CC#CCCCCC`, the boiling point was 138 °C, the log10 vapour pressure (mmHg) stood at 0.875 and the melting point was -61.6 °C.

As for `CCc1ccccc1CC`, the boiling point was 184 °C, the log10 vapour pressure (mmHg) was determined as 0.0212, the melting point was -31.2 °C and the ready biodegradability entry is reported as “not readily biodegradable”.

With `CCCCCCCCOC(=O)c1cc(O)c(O)c(O)c1`, the melting point came out at 102 °C.

With `CCNc1nc(NCC)nc(SC)n1`, the log10 Koc (L/kg) came out at 2.3.

As for `CC(=O)c1cccc(C(C)=O)c1`, the melting point is 32 °C.

With `NCc1ccco1`, the boiling point worked out at 146 °C.

Take `C=CCN(CC=C)C(=O)CCl`: the log10 Koc (L/kg) is 1.3 and the log10 vapour pressure (mmHg) is -2.03.

Consider `Clc1cc(Cl)c(Cl)c(-c2cc(Cl)c(Cl)cc2Cl)c1`, for which the log10 Henry constant (atm·m³/mol) is -4.6.

In turn, `O=c1[nH]c(=O)n([C@H]2C[C@H](O)[C@@H](CO)O2)cc1Br` had a melting point of 192 °C.

Take `CNc1ccc(O)c2c1C(=O)c1c(O)ccc(NC)c1C2=O`: the melting point amounted to 217 °C.

With `CCCCCC`, the log10 Koa came out at 2.4, the log10 biodegradation half-life (days) was found to be 0.954, the log10 vapour pressure (mmHg) was 2.18 and the ready biodegradability entry was “readily biodegradable”.

Regarding `COC(=O)c1cccc(OC)c1`, the boiling point amounted to 248 °C.

Compound `COC(=O)[C@@H]1CCCN1C(=O)COC(=O)c1ccccc1` displayed a melting point of 72.5 °C.

For the compound `CC(=O)N(c1ccccc1)c1ccccc1`, the melting point came out at 103 °C.

On to `Sc1ccccn1`, for which the melting point is 129 °C.

For `COP(=O)(OC)O/C(C)=C/C(=O)OC(C)c1ccccc1` (stereo unspecified), the log10 Koc (L/kg) is 2 and the log10 vapour pressure (mmHg) was -4.85.

Take `CN(C)c1ccc(N(C)C)cc1`: the boiling point worked out at 260 °C and the melting point stood at 51 °C.

The compound `CCc1cccc2c3c([nH]c12)C(CC)(CC(=O)O)OCC3` (stereo unspecified) registered a melting point of 146 °C.

With `CC(=O)Oc1cccc(C(=O)O)c1OC(C)=O`, the melting point came out at 149 °C.

`C=CC=C`: the boiling point is -4.4 °C, the log10 vapour pressure (mmHg) worked out at 3.32 and the melting point is -109 °C.

For `CCCOC(=O)c1ccccc1O`, the boiling point is 239 °C and the melting point stood at 97 °C.

`Cc1cccnc1N` had a boiling point of 222 °C and a melting point of 33.5 °C.

The compound `CCCCCCCCCCCCCCCC(CCCC)c1ccccc1` (stereo unspecified) registered a melting point of 30.2 °C.

`O=C(Nc1ccc(Br)cc1)c1cc(Br)ccc1O` showed a melting point of 242 °C.

Compound `C1=Cc2ccccc2C1` showed a boiling point of 182 °C, a log10 biodegradation half-life (days) of 0.477, a log10 vapour pressure (mmHg) of 0.0414 and a melting point of -1.8 °C.

With `Nc1ccc(Cl)cn1`, the melting point came to 137 °C.

As for `CCCCCCCOC(=O)CC`, the boiling point was found to be 210 °C and the melting point is -50.9 °C.

Regarding `Cc1cnc(C)[nH]1`, the boiling point came out at 267 °C and the melting point came out at 92 °C.

In the case of `Clc1ccc2cc[nH]c2c1`, the melting point came to 90 °C.

As to `O=[N+]([O-])c1cc(Br)ccc1Br`, the melting point was found to be 85.5 °C.

For the compound `OCC1(CO)CC=CCC1`, the melting point amounted to 88.5 °C.

Compound `C#CC(C)(C)NC(=O)c1ccc(Cl)cc1` gave a log10 Koc (L/kg) of 1.9.

Compound `O=C(O)COc1ccccc1C(=O)O` showed a melting point of 191 °C.

Take `C=CC(=O)N(C)C`: the ready biodegradability result is reported as “not readily biodegradable”.

In turn, `[Br-].[Br-].c1cc[n+]2c(c1)-c1cccc[n+]1CC2` had a melting point of 337 °C.

Staying with this series, now noted: fish.
For the compound `BrCCBr`, the log10 BCF turned out to be 1.18 and the log10 biotransformation half-life (days) is -0.83.

As for `CCC(C)(NC(=O)c1cc(Cl)c(C)c(Cl)c1)C(=O)CCl` (stereo unspecified), the log10 biotransformation half-life (days) turned out to be 0.16.

Compound `Clc1cc(Cl)c(Cl)c(-c2cc(Cl)c(Cl)cc2Cl)c1` showed a log10 biotransformation half-life (days) of 2.4.
